Data on 24 compounds can be found in PubChem BioAssay AID330 (DTP/NCI, 2004).

In this test the test system is P388 leukemia ip, CD2F1 mice, survival T/C. Nature of the test: NCI In Vivo Anticancer Drug Screen. Data for tumor model P388 Leukemia (intraperitoneal) in CD2F1 (CDF1) mice. The note with it: endpoint: median survival time, higher = longer survival. The gist of the method: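 Mice carrying the transplanted tumor received test compound or vehicle. Survival was recorded in each group, and the value is the treated-group measurement divided by that of the vehicle-treated control group.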

Where [1] appears, read: dose: 50.0 mg/kg/injection, schedule: Q01DX009 (ip), vehicle: saline with Tween-80.
Setting [2] is: dose: 50.0 mg/kg/injection, schedule: Q01DX005 (ip), vehicle: saline with Tween-80.
The mark [3] stands for this setting: dose: 100.0 mg/kg/injection, schedule: Q01DX005 (ip), vehicle: saline with Tween-80.
[4] abbreviates: dose: 200.0 mg/kg/injection, schedule: Q01DX005 (ip), vehicle: saline with Tween-80.
Where [5] appears, read: dose: 100.0 mg/kg/injection, schedule: Q01DX001 (ip), vehicle: saline with Tween-80.
[6] abbreviates: dose: 25.0 mg/kg/injection, schedule: Q01DX009 (ip), vehicle: saline with Tween-80.
Setting [7] is: dose: 60.0 mg/kg/injection, schedule: Q01DX005 (ip), vehicle: saline with Tween-80.
Setting [8] is: dose: 120.0 mg/kg/injection, schedule: Q01DX005 (ip), vehicle: saline with Tween-80.
The mark [9] stands for this setting: dose: 240.0 mg/kg/injection, schedule: Q01DX005 (ip), vehicle: saline with Tween-80.
[10] abbreviates: dose: 100.0 mg/kg/injection, schedule: Q04DX003 (ip), vehicle: saline with Tween-80.
[11] abbreviates: dose: 200.0 mg/kg/injection, schedule: Q04DX003 (ip), vehicle: saline with Tween-80.
The mark [12] stands for this setting: dose: 400.0 mg/kg/injection, schedule: Q04DX003 (ip), vehicle: saline with Tween-80.
[13] abbreviates: dose: 12.5 mg/kg/injection, schedule: Q01DX009 (ip), vehicle: saline with Tween-80.

Several values for one entry are separate records, joined by “and”; a condition that tells them apart may be missing. Identical values can stand only once. Toxic doses and inconclusive results are not listed.

For `C#CCOc1ccc(Cl)cc1C(=O)O`, the T/C under setting [1] was 105 % of control; the T/C (dose: 100.0 mg/kg/injection, schedule: Q01DX009 (ip), vehicle: saline with Tween-80) is 102 % of control; the T/C (dose: 200.0 mg/kg/injection, schedule: Q01DX009 (ip), vehicle: saline with Tween-80) is 97 % of control.

Take `N#CCCSC(=S)N1CCN(C(=S)SCCC#N)C1=O`: the T/C under setting [2] was 92 % of control, the T/C under setting [3] was 87 % of control and the T/C under setting [4] is 92 % of control.

As for `CN(C)CCOc1cnc2ccc(Cl)cc2n1`, the T/C by setting is: (dose: 50.0 mg/kg/injection, schedule: Q01DX005 (ip), vehicle: Klucel (hydroxypropylcellulose) (HPC)) 88 % of control; (dose: 100.0 mg/kg/injection, schedule: Q01DX005 (ip), vehicle: Klucel (hydroxypropylcellulose) (HPC)) 88 % of control.

Regarding `COC(=O)C(C)NP(=O)(N1CC1)N1CC1` (configuration not stated), the T/C is 119 % of control (dose: 1.87 mg/kg/injection, schedule: Q01DX005 (ip), vehicle: saline); 176 % of control (dose: 7.5 mg/kg/injection, schedule: Q01DX005 (ip), vehicle: saline); 257 % of control (dose: 15.0 mg/kg/injection, schedule: Q01DX005 (ip), vehicle: saline with Tween-80); 226 % of control (dose: 15.0 mg/kg/injection, schedule: Q01DX005 (ip), vehicle: saline).

Regarding `CC(=O)OC1CC2C(C)(C)OC(=O)C=CC2(C)C2CCC3(C)C(c4ccoc4)C(=O)C4OC43C12C` (configuration not stated), the T/C is 88 % of control (dose: 7.5 mg/kg/injection, schedule: Q01DX005 (ip), vehicle: Klucel (hydroxypropylcellulose) (HPC)); 93 % of control (dose: 15.0 mg/kg/injection, schedule: Q01DX005 (ip), vehicle: Klucel (hydroxypropylcellulose) (HPC)); 95 % of control (dose: 30.0 mg/kg/injection, schedule: Q01DX005 (ip), vehicle: Klucel (hydroxypropylcellulose) (HPC)); 93 % of control (dose: 60.0 mg/kg/injection, schedule: Q01DX005 (ip), vehicle: Klucel (hydroxypropylcellulose) (HPC)).

In the case of `O=C1NC(c2ccccc2)(c2ccccc2)C(=O)N1CN1CCN(CN2C(=O)NC(c3ccccc3)(c3ccccc3)C2=O)CC1`, the T/C reads like this: (dose: 25.0 mg/kg/injection, schedule: Q01DX001 (ip), vehicle: saline with Tween-80) 100 % of control; (dose: 50.0 mg/kg/injection, schedule: Q01DX001 (ip), vehicle: saline with Tween-80) 95 % of control; under setting [5], 90 % of control.

As for `COc1cccc2c1C(=O)c1c(O)c3c(c(O)c1C2=O)CC(O)(/C(C)=N/NC(=O)CCCCCCCCC(=O)N/N=C(\C)C1(O)Cc2c(O)c4c(c(O)c2C(OC2CC(N)C(O)C(C)O2)C1)C(=O)c1c(OC)cccc1C4=O)CC3OC1CC(N)C(O)C(C)O1` (configuration not stated), the T/C is, setting by setting: (dose: 3.13 mg/kg/injection, schedule: Q01DX009 (ip), vehicle: water) 155 % of control; (dose: 6.25 mg/kg/injection, schedule: Q01DX009 (ip), vehicle: water) 174 % of control; (dose: 12.5 mg/kg/injection, schedule: Q01DX009 (ip), vehicle: water) 221 % of control; (dose: 25.0 mg/kg/injection, schedule: Q01DX009 (ip), vehicle: water) 99 % of control.

For the compound `COc1ccccc1N1C(=O)C(=O)C(C(C)=O)C1=O` (configuration not stated), the T/C by setting is: (dose: 50.0 mg/kg/injection, schedule: Q01DX009 (ip), vehicle: Klucel (hydroxypropylcellulose) (HPC)) 107 % of control; (dose: 100.0 mg/kg/injection, schedule: Q01DX009 (ip), vehicle: Klucel (hydroxypropylcellulose) (HPC)) 106 % of control; (dose: 200.0 mg/kg/injection, schedule: Q01DX009 (ip), vehicle: Klucel (hydroxypropylcellulose) (HPC)) 108 % of control.

For `O=C(O)C(O)C(O)C(=O)O.[Co+3].[NH-]CC[NH-].[NH-]CC[NH-].[NH-]CC[NH-]` (configuration not stated), the T/C is, setting by setting: under setting [2], 104 % of control; under setting [3], 100 % of control.

For the compound `CC(NCCCSc1ccccc1)C(O)c1ccc(O)cc1` (configuration not stated), the T/C is 94 % of control under setting [6] and 100 % of control under setting [1].

For the compound `CC(C)NC(=O)OCc1c(COC(=O)NC(C)C)c(-c2ccc(Cl)c(Cl)c2)n2c1C[C@@H](OC(=O)CCC(=O)O)C2` (tested in a mixture with another compound), the T/C (dose: 12.5 mg/kg/injection, schedule: Q01DX005 (ip), vehicle: water) was 106 % of control and 107 % of control; the T/C (dose: 25.0 mg/kg/injection, schedule: Q01DX005 (ip), vehicle: water) was 107 % of control and 108 % of control; the T/C (dose: 50.0 mg/kg/injection, schedule: Q01DX005 (ip), vehicle: water) was 111 % of control and 123 % of control; the T/C (dose: 50.0 mg/kg/injection, schedule: Q04DX002 (ip), vehicle: water) is 103 % of control; the T/C (dose: 100.0 mg/kg/injection, schedule: Q04DX002 (ip), vehicle: water) was 111 % of control; the T/C (dose: 200.0 mg/kg/injection, schedule: Q04DX002 (ip), vehicle: water) was 107 % of control.

As for `CCOC(=O)NC(CC(NC(=O)OCC)NC(=O)OCC)NC(=O)OCC`, the T/C is 108 % of control under setting [2], 107 % of control under setting [3] and 110 % of control under setting [4].

Regarding `CCCCCC(=O)C(C)(c1nc2n(c1O)/C(=N/C(=O)Nc1ccc(Cl)cc1)N=N2)c1nc2n(c1O)/C(=N/C(=O)Nc1ccc(Cl)cc1)N=N2`, the T/C by setting is: under setting [7], 89 % of control; under setting [8], 88 % of control; under setting [9], 86 % of control.

Take `COC(=O)/C=C1\C2OC(C1C(=O)OC)C(O)C2O` (configuration not stated): the T/C runs as follows: under setting [2], 100 % of control; under setting [3], 97 % of control; under setting [4], 90 % of control.

As for `Cc1ccc(S(=O)(=O)N/N=C/c2c(Cl)n(-c3ccccc3)c3ccccc23)cc1`, the T/C under setting [5] is 100 % of control; the T/C (dose: 200.0 mg/kg/injection, schedule: Q01DX001 (ip), vehicle: saline with Tween-80) is 99 % of control; the T/C (dose: 400.0 mg/kg/injection, schedule: Q01DX001 (ip), vehicle: saline with Tween-80) is 97 % of control.

As for `CSc1ccc(NC(=O)Nc2nccs2)cc1`, the T/C under setting [10] is 95 % of control, the T/C under setting [11] is 100 % of control and the T/C under setting [12] is 90 % of control.

Take `CN(C)C=Nc1cc(Cl)c(Cl)cc1Cl`: the T/C by setting is: under setting [13], 108 % of control; under setting [6], 106 % of control; under setting [1], 106 % of control.

Consider `COc1ccc(N=C(Cl)c2ccc(Br)cc2)cc1`, for which the T/C runs as follows: under setting [2], 97 % of control; under setting [3], 96 % of control; under setting [4], 96 % of control.

In the case of `CCOc1cccc2c1C(=O)c1cccc(OCC)c1C2=O`, the T/C reads like this: under setting [10], 109 % of control; under setting [11], 104 % of control; under setting [12], 100 % of control.

Take `CC(C)(C)CC(C)(C)c1ccc(OCCO)cc1`: the T/C by setting is: (dose: 50.0 mg/kg/injection, schedule: Q04DX003 (ip), vehicle: saline) 91 % of control; (dose: 100.0 mg/kg/injection, schedule: Q04DX003 (ip), vehicle: saline) 108 % of control.

Regarding `O=C1NC(=O)C2=C1CCC2`, the T/C by setting is: (dose: 3.13 mg/kg/injection, schedule: Q01DX009 (ip), vehicle: distilled water + Tween-80) 98 % of control; (dose: 6.25 mg/kg/injection, schedule: Q01DX009 (ip), vehicle: distilled water + Tween-80) 104 % of control; (dose: 12.5 mg/kg/injection, schedule: Q01DX009 (ip), vehicle: distilled water + Tween-80) 114 % of control.

For the compound `COC(=O)C(CCl)NC(C)=O` (configuration not stated), the T/C is, setting by setting: (dose: 50.0 mg/kg/injection, schedule: Q01DX005 (ip), vehicle: saline) 97 % of control; (dose: 100.0 mg/kg/injection, schedule: Q01DX005 (ip), vehicle: saline) 100 % of control; (dose: 200.0 mg/kg/injection, schedule: Q01DX005 (ip), vehicle: saline) 101 % of control.

As to `C=C1C(=O)C23[C@H](O)C1CC[C@H]2[C@]12COC3(O)[C@@H](O)[C@@H]1C(C)(C)CC[C@@H]2O`, the T/C is 113 % of control (dose: 6.25 mg/kg/injection, schedule: Q01DX009 (ip), vehicle: saline with Tween-80); 106 % of control (dose: 8.0 mg/kg/injection, schedule: Q01DX009 (ip), vehicle: saline with Tween-80); 117 % of control (dose: 9.0 mg/kg/injection, schedule: Q01DX009 (ip), vehicle: saline with Tween-80); 104 % of control under setting [13]; 104 % of control under setting [6]; 121 % of control (dose: 27.0 mg/kg/injection, schedule: Q01DX009 (ip), vehicle: saline with Tween-80).

For `Nc1nnc(Cc2cccc3ccccc23)o1`, the T/C runs as follows: under setting [7], 109 % of control; under setting [8], 106 % of control; under setting [9], 103 % of control.
